Laboratory results from US9546144B2, “Bifunctional compounds” (University of Pittsburgh—of the Commonwealth System of …, priority 2011, dated 2017).

Experiments:
[1] = test system: luc+ bone marrow chimeric C57BL/6 mice; assay: migration of luc+ marrow cells to irradiated lungs of luc+ marrow chimeric mice; type: in vivo, mouse; conditions: in drinking water, after second thoracic irradiation dose
Protocol: FIG. 14. Pulmonary migration of luc+ marrow cells to irradiated lungs of luc+ chimeric mice. Groups of 30 C57BL/6Tac mice were given 10 Gy TBI then 24 hr. later 1×10^7 luc+ bone marrow cells I.V. At day 63, subgroups received 18 Gy thoracic irradiation. […] Mice were serially imaged for luciferase, as described in the methods.
MMS350 was tested in two mouse models of fibrosis in the C57BL/6J model. In the first system (chimeric mice) C57BL/6 mice were irradiated to a total body dose of 10 Gy, which is known to be lethal for 100% of animals in the absence of bone marrow transplantation. These mice were then transplanted intravenously with luciferase positive C57BL/6J mouse bone marrow. These mice are valuable for measuring the site of hematopoiesis from donor origin marrow since the animals can be imaged for mobilization in a specific imaging system, which detects the luciferase signal. In this assay system, animals are injected with luciferin (the substrate for the enzyme luciferase) bone marrow cells, which contain luciferase (those from the donor marrow strain) metabolize luciferin and produce a […] which is detected in a camera system over the immobilized mice. These same animals can be imaged serially over several weeks-months and followed for migration of luciferase positive cells from bone marrow sites into irradiated sites. […]

C57BL/6NTac mice = assay: total body irradiation survival (hematopoietic syndrome); type: in vivo, mouse; conditions: 9.5 Gy
Protocol: FIG. 11. MMS350 was dissolved in PBS and injected IP at 20 mg/kg. The mice were irradiated to 9.5 Gy total body irradiation and then injected at 4 or 24 hr after irradiation.
FIG. 13. In vivo mitigation of total body irradiation by MMS350. MMS350 was dissolved in water at a concentration of 2 mg/ml. C57BL/6NTac mice (n=15/group) were irradiated to 9.5 Gy total body irradiation and injected intraperitoneally with 10 mg/kg of MMS350 at 4 or 24 hr. after irradiation. The mice were followed for the development of the hematopoietic syndrome at which time the mice were sacrificed.
MMS350 was delivered by intraperitoneal injection to C57BL/6 mice (n=15/group) before or after the 9.5 Gy of total body irradiation (a dose which kills at least 50% of mice at 30 days) and indicative of death from the hematopoietic syndrome (bone marrow failure).
Mice were irradiated using JL Shepherd Mark 1 Model 68 irradiator to 9.25 total body irradiation dose or a Varian Linear Accelerator (Varian Medical Systems, Inc, Palo Alto, Calif.) to 20 Gy for pulmonary irradiation according to published methods (2, 10, 13).
Mice were injected intra-peritoneally with MMS350 or JP4-039 (GS-nitroxide) in 50% cremphor/50% ethanol according to published methods. For long-term administration of MMS350, the drug was administered in water bottles with bottles changed every 7 days. The dose of drug per bottle was 100 μM MMS350 starting on day 88. The estimated total amount consumed by each animal daily was 10.9 μg based on a mouse drinking 5 ml of water per day. Chimeric mice irradiated to the thoracic cavity were placed 30 days later on MMS350 in water containing 100 mM MMS350. On day 88 after thoracic irradiation of non-chimeric mice, mice were placed on […] MMS350 in drinking water.

[2] = storage in 25% w/w solutions of 3 and NMP; type: physicochemical; conditions: 25% w/w 3 and NMP at −20° C.
Protocol: Because sulfoxide 3 is a solid, it would have to be mixed with an appropriate water-soluble cosolvent to act as a compound storage additive. NMP was chosen for exploring this potential application due to its thermal stability and low toxicity. […] The compound test set (FIG. 2) was stored in 25% w/w solutions of 3 and NMP for 6 weeks at −20° C.

With CC1(C[S+]([O-])CC2(C)COC2)COC1 [compound 3, 3,3′-Sulfinylbis(methylene)bis(3-methyloxetane)] the “migration of bone marrow cells into the lungs” value [1] was “significantly reduces migration of bone marrow cells into the lungs”, the “survival after total body irradiation” value (C57BL/6NTac mice; 10 mg/kg intraperitoneally 4 hr after irradiation, p=0.0092) was “significantly increased survival” and the “survival after total body irradiation” value (C57BL/6NTac mice; 10 mg/kg intraperitoneally 24 hr after irradiation, p=0.0097) was “significantly increased survival”. For the same compound, the “protection against total body irradiation” value (C57BL/6NTac mice; intraperitoneal injection before irradiation) was “protector when delivered prior to irradiation” and the “behaviour of 3 in the storage solution” value [2] was “partly precipitated from the solution”.
